The source of these data is patent US10881642B2, “Autophagy enhancer and use thereof” (Industry-Academic Cooperation Foundation, Yonsei University, priority 2016, dated 2021).

The test system of the experiment is HeLa cells. The experiment is described as follows: Autophagic flux in HeLa cells (RFP-LC3/LAMP1, mRFP-GFP-LC3, FYVE-dsRed, immunoblot). The experiment is classed as cell-based. As for the experimental part: FIG. 2 indicates the results of the Hela Cells treated with Compound of formula I (hereinafter referred to as MSL) showing the increase of the autophagic flux in the cells treated. FIG. 2A indicates the results of the experiments in which HeLa cells transfected with RFP-LC3 plasmid for 48 hrs were treated with compound MSL of the present disclosure or vehicle control for 1 hr, which were then […] with antibody against LAMP1. The arrows indicate puncta. LC3 or the number of puncta was also indicated as bar graph. FIG. 2B indicates the results of the experiments in which HeLa cells transfected with mRFP-GFP-LC3 plasmid for 48 hrs were treated with compound MSL of the present disclosure or vehicle control for 1 hr, in which autophagosome (yellow puncta) or autophagolysosome (red puncta) were measured using Image J software. The number of puncta was indicated as bar graph. FIG. 2C indicates the results of the experiments in which HeLa cells transfected with FYVE-dsRed plasmid for 48 hrs were treated with compound MSL of the present disclosure or vehicle control for 1 hr, in which the number of FYVE-dsRed vesicles was measured. The measured value were average of the values obtained from at least 3 images. Error bars, S.D. **, P<0.01; ***, P<0.001.
FIG. 10 is the result of the experiments using compound of formula 2 (hereinafter referred to as MSL-7) of the present disclosure as an autophagic enhancer. FIG. 10A is the result of immuneblot using the antibodies indicated using Hela cells treated with MSL or MSL-7. FIG. 10B is the result of measuring the viability of Hela cells treated with vehicle control or various concentration of MSL-7 (50-100 μM) for 48 hrs. FIG. 10C is the result of DAPI stained nuclei of TFEB-GFP HeLa cells which were treated with vehicle control or MSL-7 for 4 hrs. The graph indicates the percentage of TFEB translocated into the nuclei. Error bars, S.D. *, P<0.05; **, P<0.01; ***, P<0.001.
FIG. 12 indicates the improvement of the metabolic profile of HFD-feed mice by MSL-7: (FIG. 12A) Confocal microscopic result of HeLa cells transfected with tandem mRFP-GFP-LC3 and treated with MSL-7 in which red puncta indicates autophagolysosome. (FIG. 12B, 12C) 8 week old male C57BL/6 mice were fed with HFD or normal chow diet (NCD) for 8 weeks, and then 50 mg/kg MSL-7 was administered three times a week for 8 weeks. Non-fasting glucose level (FIG. 12B) and body weight (FIG. 12C) were monitored. (FIG. 12D) IPGTT. (FIG. 12E) AUC curve of (FIG. 12D). (FIG. 12F) ITT. (FIG. 12G) AUC curve of (FIG. 12F).
Screening of autophagy enhancer. […] Luciferase assay. Firefly and Renilla luciferase assays were conducted using the Dual-Luciferase Reporter Assay System (Promega) according to the manufacturer's recommendation. In brief, cells were lysed in 1× lysis buffer and subjected to a single round of freezing/thawing. Firefly luciferase was determined after mixing 5 μl of lysate with 25 μl of Luciferase Assay Reagent II. Renilla luciferase was then determined after further addition of 20 ul of Stop&Glo Reagent. Cell culture and media and drugs treatment. […]

Consider `COc1oc(-c2ccccc2Cl)nc1S(=O)(=O)c1ccccc1` [MSL-7, 2-(2-chlorophenyl)-5-methoxy-4-(phenylsulfonyl) oxazole], for which the autophagy-enhancing activity result (immunoblot, FIG. 10A) is given as “definite autophagy-enhancing activity”. The formation of autophagolysosome entry (mRFP-GFP-LC3, red puncta) was “induced”.

For `CSc1oc(-c2ccccc2)nc1S(=O)(=O)c1ccc(F)cc1` [MSL], for the setting “1 hr”, the “Recruitment of FYVE-dsRed+ vesicle” value is reported as “increased”. In addition, where the note is “RFP-LC3 transfected, 1 hr”, the “LC3+ autophagosome colocalization with lysosomal marker LAMP1” value was “positive for the lysosomal markers LAMP1”. For the same compound, the “number of yellow puncta (early autophagic organelles) and red puncta (autolysosomes)” value (mRFP-GFP-LC3B probe, 1 hr) is “increases”.
